Results published in ChEMBL document CHEMBL3400105, “Discovery of novel pyrazolopyrimidinone analogs as potent inhibitors of phosphodiesterase type-5” (Bioorg Med Chem, 2015).
In brackets after ≈: the same amount, converted by molar mass. Each block holds one compound with its values, some of them ahead of it.

What was measured:
[1] = target: T1, cGMP-specific 3',5'-cyclic phosphodiesterase (Homo sapiens, UniProt O76074)
[2] = AUC (0 to time) in Balbc mouse at 1 mg/kg, ip; format: ADME, organism-based; parameters: dose 1 mg/kg, route intraperitoneal; settings: plasma
[3] = AUC (0 to time) in Swiss mouse at 10 mg/kg, po; format: ADME, organism-based; parameters: dose 10 mg/kg, route oral; settings: plasma
[4] = AUC (0 to infinity) in Balbc mouse at 1 mg/kg, iv; format: ADME, organism-based; parameters: time infinity, dose 1 mg/kg, route intravenous; settings: plasma
[5] = AUC (0 to infinity) in Balbc mouse at 1 mg/kg, ip; format: ADME, organism-based; parameters: time infinity, dose 1 mg/kg, route intraperitoneal; settings: plasma
[6] = AUC (0 to infinity) in Swiss mouse at 10 mg/kg, po; format: ADME, organism-based; parameters: time infinity, dose 10 mg/kg, route oral; settings: plasma
[7] = Apparent oral clearance in Balbc mouse at 1 mg/kg, iv; format: ADME, organism-based; parameters: dose 1 mg/kg, route oral; settings: in vivo
[8] = Apparent oral clearance in Swiss mouse at 10 mg/kg, po; format: ADME, organism-based; parameters: dose 10 mg/kg, route oral; settings: in vivo
[9] = Apparent oral volume of distribution in Balbc mouse at 1 mg/kg, iv; format: ADME, organism-based; parameters: dose 1 mg/kg, route oral; settings: in vivo
[10] = Apparent oral volume of distribution in Swiss mouse at 10 mg/kg, po; format: ADME, organism-based; parameters: dose 10 mg/kg, route oral; settings: in vivo
[11] = target: CYP3A4 (Homo sapiens, UniProt P08684); experiment: Inhibition of CYP3A4 (unknown origin) at 10 uM; format: ADME
[12] = target: CYP2C9 (Homo sapiens, UniProt P11712); experiment: Inhibition of CYP2C9 (unknown origin) at 10 uM; format: ADME
[13] = target: Dual specificity calcium/calmodulin-dependent 3',5'-cyclic nucleotide phosphodiesterase 1A (Homo sapiens, UniProt P54750); experiment: Inhibition of PDE1A1 (unknown origin) using fluorescently labeled cAMP substrate by fluorescence polarization assay
[14] = target: cGMP-dependent 3',5'-cyclic phosphodiesterase (Homo sapiens, UniProt O00408); experiment: Inhibition of PDE2A1 (unknown origin) using fluorescently labeled cAMP substrate by fluorescence polarization assay
[15] = target: cGMP-inhibited 3',5'-cyclic phosphodiesterase 3A (Homo sapiens, UniProt Q14432); experiment: Inhibition of PDE3A (unknown origin) using fluorescently labeled cAMP substrate by fluorescence polarization assay
[16] = target: 3',5'-cyclic-AMP phosphodiesterase 4A (Homo sapiens, UniProt P27815); experiment: Inhibition of PDE4A1 (unknown origin) using fluorescently labeled cAMP substrate by fluorescence polarization assay
[17] = target: T1, cGMP-specific 3',5'-cyclic phosphodiesterase; experiment: Inhibition of PDE5A1 (unknown origin)
[18] = target: Cone cGMP-specific 3',5'-cyclic phosphodiesterase subunit alpha' (Homo sapiens, UniProt P51160); experiment: Inhibition of PDE6C (unknown origin)
[19] = target: High affinity 3',5'-cyclic-AMP phosphodiesterase 7A (Homo sapiens, UniProt Q13946); experiment: Inhibition of GST-tagged recombinant human PDE7A1
[20] = target: High affinity cAMP-specific and IBMX-insensitive 3',5'-cyclic phosphodiesterase 8A (Homo sapiens, UniProt O60658); experiment: Inhibition of GST-tagged recombinant human PDE8A1
[21] = target: High affinity cGMP-specific 3',5'-cyclic phosphodiesterase 9A (Homo sapiens, UniProt O76083); experiment: Inhibition of GST-tagged recombinant human PDE9A2
[22] = target: cAMP and cAMP-inhibited cGMP 3',5'-cyclic phosphodiesterase 10A (Homo sapiens, UniProt Q9Y233); experiment: Inhibition of PDE10A1 (unknown origin) using fluorescently labeled cAMP substrate by fluorescence polarization assay
[23] = target: Dual 3',5'-cyclic-AMP and -GMP phosphodiesterase 11A (Homo sapiens, UniProt Q9HCR9); experiment: Inhibition of GST-tagged recombinant human PDE11A4
[24] = Solubility in simulated gastric fluid; format: ADME, Stomach
[25] = Solubility in water; format: physicochemical
[26] = Solubility in PBS; format: physicochemical
[27] = Solubility in simulated intestinal fluid; format: ADME
[28] = Passive permeability across apical to basolateral side in human Caco2 cells; format: ADME, cell-based
[29] = Passive permeability across basolateral to apical side in human Caco2 cells; format: ADME, cell-based; settings: Caco-2, read-out: permeability
[30] = Fraction unbound in whole blood (unknown origin); format: ADME, tissue-based
[31] = Lipophilicity, log P of the compound; format: physicochemical; settings: octanol/water
[32] = Lipophilicity, log D of the compound; format: physicochemical; settings: octanol/water
[33] = Dissociation constant, pKa of the compound; format: physicochemical
[34] = Plasma protein binding (unknown origin); format: ADME, cell-free; settings: read-out: PPB (converted)
[35] = Metabolic stability in mouse liver microsomes assessed as metabolized drug; format: ADME; settings: read-out: Drug metabolism
[36] = Half life in Swiss mouse at 10 mg/kg, po; format: ADME, organism-based; parameters: dose 10 mg/kg, route oral; settings: in vivo
[37] = Cmax in Balbc mouse at 1 mg/kg, iv; format: ADME, organism-based; parameters: dose 1 mg/kg, route intravenous; settings: in vivo
[38] = Cmax in Balbc mouse at 1 mg/kg, ip; format: ADME, organism-based; parameters: dose 1 mg/kg, route intraperitoneal; settings: in vivo
[39] = Cmax in Swiss mouse at 10 mg/kg, po; format: ADME, organism-based; parameters: dose 10 mg/kg, route oral; settings: in vivo
[40] = Tmax in Balbc mouse at 1 mg/kg, ip; format: ADME, organism-based; parameters: dose 1 mg/kg, route intraperitoneal; settings: in vivo
[41] = Tmax in Swiss mouse at 10 mg/kg, po; format: ADME, organism-based; parameters: dose 10 mg/kg, route oral; settings: in vivo
[42] = system: Plasma; experiment: Initial plasma concentration in Swiss mouse at 10 mg/kg, po; format: ADME, organism-based; parameters: dose 10 mg/kg, route oral; settings: in vivo
[43] = AUC (0 to time) in Balbc mouse at 1 mg/kg, iv; format: ADME, organism-based; parameters: dose 1 mg/kg, route intravenous; settings: plasma
[44] = in vitro; settings: human, Caco-2
[45] = system: Oryctolagus cuniculus; experiment: Induction of penile erection in conscious rabbit model assessed as area under curve of length of uncovered penile mucosa at 3 mg/kg, iv into ear vain

High affinity 3',5'-cyclic-AMP phosphodiesterase 7A, sequence (Q13946 whole entry): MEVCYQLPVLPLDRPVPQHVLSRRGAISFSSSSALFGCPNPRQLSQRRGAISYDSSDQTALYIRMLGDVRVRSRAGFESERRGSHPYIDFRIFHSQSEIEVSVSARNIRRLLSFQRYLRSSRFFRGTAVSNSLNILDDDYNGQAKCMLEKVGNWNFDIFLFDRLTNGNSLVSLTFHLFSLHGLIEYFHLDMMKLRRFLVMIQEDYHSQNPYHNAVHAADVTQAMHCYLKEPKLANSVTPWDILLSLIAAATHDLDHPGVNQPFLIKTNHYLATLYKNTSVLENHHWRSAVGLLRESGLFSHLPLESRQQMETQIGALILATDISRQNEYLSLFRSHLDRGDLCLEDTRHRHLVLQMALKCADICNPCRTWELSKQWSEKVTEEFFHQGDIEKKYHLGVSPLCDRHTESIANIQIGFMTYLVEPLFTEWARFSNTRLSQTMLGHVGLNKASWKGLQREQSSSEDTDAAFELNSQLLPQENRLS
Dual specificity calcium/calmodulin-dependent 3',5'-cyclic nucleotide phosphodiesterase 1A, sequence (P54750 whole entry): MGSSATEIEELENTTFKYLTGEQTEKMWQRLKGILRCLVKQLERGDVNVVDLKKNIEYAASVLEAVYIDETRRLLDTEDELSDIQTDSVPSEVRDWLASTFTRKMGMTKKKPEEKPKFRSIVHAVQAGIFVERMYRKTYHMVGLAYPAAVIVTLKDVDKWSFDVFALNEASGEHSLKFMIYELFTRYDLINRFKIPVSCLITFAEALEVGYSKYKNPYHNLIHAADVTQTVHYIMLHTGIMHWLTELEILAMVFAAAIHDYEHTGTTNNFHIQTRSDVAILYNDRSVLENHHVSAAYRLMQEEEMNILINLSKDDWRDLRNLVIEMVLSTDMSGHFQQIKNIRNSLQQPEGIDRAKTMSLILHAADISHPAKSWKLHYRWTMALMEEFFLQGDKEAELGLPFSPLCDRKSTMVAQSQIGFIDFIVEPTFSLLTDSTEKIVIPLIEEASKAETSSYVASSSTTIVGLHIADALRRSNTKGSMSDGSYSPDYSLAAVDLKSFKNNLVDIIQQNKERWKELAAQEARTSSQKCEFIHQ
Dual 3',5'-cyclic-AMP and -GMP phosphodiesterase 11A, sequence (Q9HCR9 whole entry): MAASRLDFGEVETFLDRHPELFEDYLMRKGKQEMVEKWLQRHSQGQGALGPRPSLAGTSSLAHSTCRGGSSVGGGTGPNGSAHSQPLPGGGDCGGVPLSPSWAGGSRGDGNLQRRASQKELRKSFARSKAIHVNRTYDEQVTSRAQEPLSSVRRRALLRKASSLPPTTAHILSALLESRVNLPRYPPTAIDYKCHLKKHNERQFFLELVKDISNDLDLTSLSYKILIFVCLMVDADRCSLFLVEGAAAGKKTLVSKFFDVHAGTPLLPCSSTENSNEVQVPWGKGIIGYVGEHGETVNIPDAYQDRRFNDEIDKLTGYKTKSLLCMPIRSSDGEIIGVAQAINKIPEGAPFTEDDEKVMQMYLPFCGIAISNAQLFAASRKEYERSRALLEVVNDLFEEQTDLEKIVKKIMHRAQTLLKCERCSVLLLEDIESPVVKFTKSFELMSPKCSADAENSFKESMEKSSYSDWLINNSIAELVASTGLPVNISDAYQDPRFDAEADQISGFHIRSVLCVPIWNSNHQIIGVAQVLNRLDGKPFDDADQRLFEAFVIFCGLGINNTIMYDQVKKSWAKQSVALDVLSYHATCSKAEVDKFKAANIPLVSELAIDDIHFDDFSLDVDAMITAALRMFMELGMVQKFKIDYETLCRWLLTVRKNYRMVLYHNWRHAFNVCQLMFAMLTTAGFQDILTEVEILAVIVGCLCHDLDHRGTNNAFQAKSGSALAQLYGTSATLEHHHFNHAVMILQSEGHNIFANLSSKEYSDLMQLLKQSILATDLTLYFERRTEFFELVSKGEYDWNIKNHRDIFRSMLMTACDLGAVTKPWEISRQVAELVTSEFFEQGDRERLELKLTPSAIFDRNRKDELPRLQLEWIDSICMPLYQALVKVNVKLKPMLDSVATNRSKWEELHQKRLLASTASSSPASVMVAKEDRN
cAMP and cAMP-inhibited cGMP 3',5'-cyclic phosphodiesterase 10A, sequence (Q9Y233 whole entry): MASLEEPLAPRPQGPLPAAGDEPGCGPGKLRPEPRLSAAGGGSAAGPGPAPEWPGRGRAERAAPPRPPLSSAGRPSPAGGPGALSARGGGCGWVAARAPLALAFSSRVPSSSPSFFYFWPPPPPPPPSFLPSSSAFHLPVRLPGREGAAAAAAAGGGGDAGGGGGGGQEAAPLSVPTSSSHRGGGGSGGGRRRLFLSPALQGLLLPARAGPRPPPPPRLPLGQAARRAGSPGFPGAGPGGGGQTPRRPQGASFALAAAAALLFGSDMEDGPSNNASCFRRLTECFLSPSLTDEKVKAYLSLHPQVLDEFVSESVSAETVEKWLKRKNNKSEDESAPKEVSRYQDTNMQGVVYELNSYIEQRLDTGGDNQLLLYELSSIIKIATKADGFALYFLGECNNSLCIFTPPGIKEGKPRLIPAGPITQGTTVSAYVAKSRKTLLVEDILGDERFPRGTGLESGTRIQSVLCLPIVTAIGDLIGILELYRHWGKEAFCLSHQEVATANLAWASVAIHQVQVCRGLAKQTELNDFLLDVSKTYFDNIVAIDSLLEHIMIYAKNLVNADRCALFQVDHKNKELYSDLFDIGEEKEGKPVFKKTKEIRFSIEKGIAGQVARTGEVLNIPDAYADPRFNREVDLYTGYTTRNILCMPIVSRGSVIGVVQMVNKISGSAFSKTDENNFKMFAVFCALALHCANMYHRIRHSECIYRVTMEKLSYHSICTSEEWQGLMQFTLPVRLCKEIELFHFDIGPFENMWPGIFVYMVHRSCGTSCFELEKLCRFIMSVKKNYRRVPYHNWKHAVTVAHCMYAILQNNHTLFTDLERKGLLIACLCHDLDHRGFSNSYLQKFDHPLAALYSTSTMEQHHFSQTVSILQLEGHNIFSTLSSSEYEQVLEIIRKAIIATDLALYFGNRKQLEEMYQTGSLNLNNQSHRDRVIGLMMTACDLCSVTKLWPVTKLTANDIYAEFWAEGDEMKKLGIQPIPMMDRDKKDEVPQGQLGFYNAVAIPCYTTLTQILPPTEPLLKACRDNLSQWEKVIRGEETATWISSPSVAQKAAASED
cGMP-inhibited 3',5'-cyclic phosphodiesterase 3A, sequence (Q14432 whole entry): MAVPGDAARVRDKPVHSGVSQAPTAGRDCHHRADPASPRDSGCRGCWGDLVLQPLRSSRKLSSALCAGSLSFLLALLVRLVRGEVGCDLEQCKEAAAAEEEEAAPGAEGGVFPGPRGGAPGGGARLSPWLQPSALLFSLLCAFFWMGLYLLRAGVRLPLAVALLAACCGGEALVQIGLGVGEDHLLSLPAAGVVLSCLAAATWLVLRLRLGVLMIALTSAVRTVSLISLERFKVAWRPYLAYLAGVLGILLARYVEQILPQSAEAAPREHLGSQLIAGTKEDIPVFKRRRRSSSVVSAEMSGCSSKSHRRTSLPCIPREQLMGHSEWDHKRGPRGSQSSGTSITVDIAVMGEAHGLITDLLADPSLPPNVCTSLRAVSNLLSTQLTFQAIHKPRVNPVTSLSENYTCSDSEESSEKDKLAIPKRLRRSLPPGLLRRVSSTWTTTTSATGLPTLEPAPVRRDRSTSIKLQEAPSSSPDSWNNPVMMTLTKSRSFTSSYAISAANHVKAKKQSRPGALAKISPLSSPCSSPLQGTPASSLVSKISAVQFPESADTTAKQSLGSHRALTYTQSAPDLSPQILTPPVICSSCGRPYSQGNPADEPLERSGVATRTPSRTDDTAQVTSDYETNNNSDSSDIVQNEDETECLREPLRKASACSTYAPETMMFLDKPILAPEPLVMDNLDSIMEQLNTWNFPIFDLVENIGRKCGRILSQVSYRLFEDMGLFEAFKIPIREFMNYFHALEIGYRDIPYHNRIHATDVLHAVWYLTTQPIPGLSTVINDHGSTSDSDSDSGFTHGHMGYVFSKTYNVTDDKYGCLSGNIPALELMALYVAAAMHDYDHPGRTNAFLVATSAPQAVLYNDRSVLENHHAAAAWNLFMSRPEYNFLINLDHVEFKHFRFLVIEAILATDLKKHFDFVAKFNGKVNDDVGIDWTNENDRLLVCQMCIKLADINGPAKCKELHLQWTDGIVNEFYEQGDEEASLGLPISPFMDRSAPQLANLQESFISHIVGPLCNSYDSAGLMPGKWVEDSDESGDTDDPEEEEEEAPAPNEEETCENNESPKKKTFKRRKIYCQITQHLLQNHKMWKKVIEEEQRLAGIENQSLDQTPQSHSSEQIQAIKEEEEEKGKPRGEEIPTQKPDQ
Cone cGMP-specific 3',5'-cyclic phosphodiesterase subunit alpha', sequence (P51160 whole entry): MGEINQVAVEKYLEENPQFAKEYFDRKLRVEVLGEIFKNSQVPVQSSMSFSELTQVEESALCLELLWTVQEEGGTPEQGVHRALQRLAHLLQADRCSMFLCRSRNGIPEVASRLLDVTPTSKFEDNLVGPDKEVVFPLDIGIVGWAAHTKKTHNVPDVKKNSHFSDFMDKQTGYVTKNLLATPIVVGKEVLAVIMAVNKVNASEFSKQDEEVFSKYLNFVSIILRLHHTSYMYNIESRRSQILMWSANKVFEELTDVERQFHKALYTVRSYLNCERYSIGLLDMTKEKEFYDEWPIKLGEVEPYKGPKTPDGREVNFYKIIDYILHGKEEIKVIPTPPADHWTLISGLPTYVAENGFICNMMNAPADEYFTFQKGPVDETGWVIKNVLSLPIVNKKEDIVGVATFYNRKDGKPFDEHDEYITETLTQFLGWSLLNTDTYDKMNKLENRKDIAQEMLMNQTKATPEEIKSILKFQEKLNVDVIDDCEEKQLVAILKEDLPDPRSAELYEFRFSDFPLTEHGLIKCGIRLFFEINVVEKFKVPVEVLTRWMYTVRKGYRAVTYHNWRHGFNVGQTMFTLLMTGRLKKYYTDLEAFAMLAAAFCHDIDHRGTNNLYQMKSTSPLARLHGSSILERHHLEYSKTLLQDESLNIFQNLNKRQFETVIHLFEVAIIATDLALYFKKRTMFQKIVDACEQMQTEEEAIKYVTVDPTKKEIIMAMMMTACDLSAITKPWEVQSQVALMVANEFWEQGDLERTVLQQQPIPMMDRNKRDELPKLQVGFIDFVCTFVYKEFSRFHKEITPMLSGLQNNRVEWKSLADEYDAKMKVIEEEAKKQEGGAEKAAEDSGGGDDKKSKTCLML

SMILES: CCCc1nn(C)c2c(=O)[nH]c(-c3cc(S(=O)(=O)NCc4ccc(OC)c(F)c4)ccc3OCC)nc12
IC50 [1]: 3.3 nM

SMILES: CCCc1nn(C)c2c(=O)[nH]c(-c3cc(S(=O)(=O)NCCCCCCO)ccc3OCC)nc12
AUC [2]: 69.4 ng·h/mL | AUC [3]: 134 ng·h/mL | AUC(0-inf) [4]: 81.8 ng·h/mL | AUC(0-inf) [5]: 71 ng·h/mL | AUC(0-inf) [6]: 156 ng·h/mL | CL/F [7]: 204 mL/min/kg | CL/F [8]: 1070 mL/min/kg | Vd/F [9]: 1.65 L/kg | Vd/F [10]: 76.8 L/kg | inhibition at 10 µM [11]: 50% | inhibition at 10 µM [12]: 56% | IC50 [13]: 62 nM | IC50 [14]: 560 nM | IC50 [15]: > 10000 nM | IC50 [16]: 3700 nM | IC50 [17]: 1.5 nM | IC50 [18]: 5.2 nM | IC50 ([19]; read-out: IC50): > 10000 nM | IC50 [20]: > 10000 nM | IC50 [21]: 3800 nM | IC50 [22]: 2000 nM | IC50 [23]: 1400 nM | solubility [24]: 80 µM (≈ 39.3 µg/mL) | solubility [25]: 20 µM (≈ 9.83 µg/mL) | solubility [26]: 20 µM (≈ 9.83 µg/mL) | solubility [27]: 10 µM (≈ 4.92 µg/mL) | Papp A→B ([28]; Caco-2, read-out: permeability): 9.1 ×10⁻⁶ cm/s | Papp B→A [29]: 54.4 ×10⁻⁶ cm/s | fraction unbound [30]: 0.023 | logP [31]: 2.73 | logD [32]: 2.73 | pKa [33]: 5.22 | fraction unbound [34]: 0.023 | metabolised [35]: > 95% | half-life [36]: 48 min | Cmax [37]: 221 ng/mL | Cmax [38]: 105 ng/mL | Cmax [39]: 380 ng/mL | Tmax [40]: 30 min | Tmax [41]: 4.98 min | C0 [42]: 556 ng/mL | AUC [43]: 80 ng·h/mL | IC50 [1]: 1.5 nM | efflux ratio [44]: 6 | AUC [45]: 432

SMILES: CCCc1nn(C)c2c(=O)[nH]c(-c3cc(S(=O)(=O)N4CCN(C)CC4)ccc3OCC)nc12
IC50 [13]: 600 nM | IC50 [19]: 22000 nM | permeability ([28]; Caco-2): 37.9 ×10⁻⁶ cm/s | Papp B→A [29]: 45.5 ×10⁻⁶ cm/s | fraction unbound [30]: 0.066 | logP [31]: 2.58 | logD [32]: 2.69 | pKa [33]: 4.86 | fraction unbound [34]: 0.04 | metabolised [35]: 90% | AUC [45]: 305

SMILES: CCCc1nn(C)c2c(=O)[nH]c(-c3cc(S(=O)(=O)NCCN(CC)CC)ccc3OCC)nc12
IC50 [1]: 32 nM

SMILES: CCCCCCNS(=O)(=O)c1ccc(OCC)c(-c2nc3c(CCC)nn(C)c3c(=O)[nH]2)c1
IC50 [1]: 12 nM

SMILES: CCCCCCCNS(=O)(=O)c1ccc(OCC)c(-c2nc3c(CCC)nn(C)c3c(=O)[nH]2)c1
IC50 [1]: 3.9 nM

SMILES: CCCc1nn(C)c2c(=O)[nH]c(-c3cc(S(=O)(=O)NCCc4c[nH]c5ccccc45)ccc3OCC)nc12
IC50 [1]: 13 nM

The next lines start with the values.

IC50 [1]: 2.6 nM
SMILES: CCCc1nn(C)c2c(=O)[nH]c(-c3cc(S(=O)(=O)NCCCN4CCOCC4)ccc3OCC)nc12

IC50 [1]: 16 nM
SMILES: CCCc1nn(C)c2c(=O)[nH]c(-c3cc(S(=O)(=O)NCCN4CCCCC4)ccc3OCC)nc12

IC50 [1]: 3.4 nM
SMILES: CCCc1nn(C)c2c(=O)[nH]c(-c3cc(S(=O)(=O)NCCCO)ccc3OCC)nc12

IC50 [1]: 1.9 nM
SMILES: CCCc1nn(C)c2c(=O)[nH]c(-c3cc(S(=O)(=O)NCCCCO)ccc3OCC)nc12

IC50 [1]: 1.7 nM
SMILES: CCCc1nn(C)c2c(=O)[nH]c(-c3cc(S(=O)(=O)NCCCCCO)ccc3OCC)nc12

IC50 [1]: 1.6 nM
SMILES: CCCc1nn(C)c2c(=O)[nH]c(-c3cc(S(=O)(=O)NCCN4CCOCC4)ccc3OCC)nc12

IC50 [1]: 14 nM
SMILES: CCCc1nn(C)c2c(=O)[nH]c(-c3cc(S(=O)(=O)NCCCN(C)C)ccc3OCC)nc12
